Data taken from paper PMC11137198 (Frontiers in Pharmacology, 2024).
Several values for one entry are separate records, joined by “and”; a condition that tells them apart may be missing. Identical values can stand only once. Like-named read-outs stand apart in the source and are kept apart here. Marks after values point to notes of the source that are not given here.

Experiments:
HAG [1] = system: HAG; set-up: species or system human; details: binding constant within HAG, PBS
Text: (§1) To calculate the K B values by means of UV absorption spectroscopy, the same Eq. 1 has been applied but using A instead of F.
Competing interactions on mixtures containing the drug and a metabolite in the presence of HAG confirmed the consistency of the determined binding constants.

HAG [2] = target: T1, HAG (Homo sapiens, UniProt P02763); format: physicochemical; details: HAG-bound; for weight of τ1 component / weight of τ2 component / τ2 / τ1: two-exponential fit; for τ2: long component; for τ1: short component; for λmax (fluorescence): 1:1 (10 μM)
T1 construct: α1-acid glycoprotein from human plasma (HAG) were purchased from Sigma-Aldrich; purchased Sigma-Aldrich; host or cells: human plasma
Protocol: (§2) Steady-state fluorescence spectra were recorded on an Edinburgh FS5 spectrofluorometer, provided with a monochromator in the wavelength range of 200–900 nm using an excitation wavelength of 340 nm at room temperature. Measurements on drug@protein complexes were performed in aerated PBS of 1:1 M ratio mixtures at 10 µM. The absorbance of the samples at the excitation wavelength was kept below 0.1. The fluorescence quantum yields were determined using anthracene in ethanol as reference ([Montalti et al., 2006]).
(§3) Time-resolved fluorescence measurements were performed with an EasyLife X system containing a sample compartment composed of an automated peltier cuvette holder to control the temperature at 24°C, a pulsed LED excitation source and a lifetime detector. The employed LED excitation source was 340 nm, with emission filter of WG370. The fluorescence lifetimes (τF) were obtained upon fitting the decay traces by a non-linear fitting/deconvolution procedure F(t) = Σa i ·exp(-t/τ i ) by means of a one- or two-exponential function, depending on the investigated system. All spectroscopic measurements were done in 10 × 10 mm^2 quartz cuvettes at room temperature.
The insets show the normalized spectra. For ligand@protein complexes, solutions were at 1:1 M ratio (10 μM).

[3] = set-up: method as in Tamarit et al., 2021; Tamarit et al., 2022; details: cyclohexane, ref Tamarit et al., 2021, 2022; cited from earlier work
HSA [4] = target: T2, HSA (Homo sapiens, UniProt P02768); experiment: Binding constant (K B) by modified Scatchard analysis from UV absorption and fluorescence; details: binding constant within HSA, PBS
T2 construct: purchased Sigma-Aldrich
Protocol: as §1
An additional point to address is the strength of interaction of the drug and its two metabolites within HSA, since it is key for their transport to the specific targets and for their toxicological activity. […] To this end, a modified Scatchard analysis was performed (Supplementary Figures S6–S8).

HSA and HAG = experiment: Competing interactions in an equimolar mixture of the two proteins (fluorescence); format: binding, human; details: fluorescence emission, λexc = 340 nm
HSA [5] = target: T2, HSA; details: HSA-bound, λexc = 340 nm, PBS; ref 36 (Tamarit et al., 2022); cited from earlier work
cellular milieu = system: cellular milieu; set-up: method as in El Ouardi et al., 2023; details: UVA light, biological media; ref El Ouardi et al., 2023; cited from earlier work
HSA [6] = target: T2, HSA; experiment: Steady-state and time-resolved fluorescence of ligand@HSA complexes; format: physicochemical; details: HSA-bound
Protocol: as §2, §3
FIGURE 2 (A) Fluorescence spectra for GFT-M2 in PBS (gray) and for GFT-M2@HSA (green). […] Measurements were performed at λexc = 340 nm in PBS; for ligand@HSA complexes, solutions were at 1:1 M ratio (10 μM).

[7] = Fluorescence of free ligand in organic solvents or PBS; format: physicochemical
Protocol: as §2, §3
An important point to discuss is the low fluorescence yield value of GFT-M2 within the protein cavities (ϕF ∼ 0.01) compared with that obtained in cyclohexane (ϕF ∼ 0.13). […] It is worth to mention that this is a dynamic process that lowers τF values ([Tamarit et al., 2021]; [Tamarit et al., 2022]). With the aim of investigating this possibility for GFT-M2, fluorescence measurements were performed in the non-polar solvent toluene in the presence of increasing amounts of Tyr and Trp (due to solubility requirements, the N-acetyl methyl ester amino acid derivatives, namely, NAc-TyrMe or NAc-TrpMe, were used). […] It is worth to mention that using either Tyr or Trp as quenchers, a new band with λmax ∼ 490 nm arose at high amino acid concentrations (insets of Figure 3); this is attributed to emission from phenolate-like species involving interaction between hydrogen-bonded GFT-M2 and Tyr (or Trp) in the ground state. However, and as discussed above, these species have not been observed in the supramolecular GFT-M2@HSA complex, since LE states predominate. Therefore, it would exist an additional deactivation route for ^1GFT-M2* within the protein, which would be strongly affected by the conformational arrangement of the metabolite in the binding sites (see the discussion on MD simulations).

[8] = λexc = 340 nm, PBS, 1:1 (10 μM)

T1 sequence (P02763 19-201): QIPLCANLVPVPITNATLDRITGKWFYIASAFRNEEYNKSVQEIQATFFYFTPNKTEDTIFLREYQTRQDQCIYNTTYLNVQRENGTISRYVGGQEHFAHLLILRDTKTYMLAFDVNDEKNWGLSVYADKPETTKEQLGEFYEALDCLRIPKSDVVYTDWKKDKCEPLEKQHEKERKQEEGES
T2 sequence (P02768 25-609): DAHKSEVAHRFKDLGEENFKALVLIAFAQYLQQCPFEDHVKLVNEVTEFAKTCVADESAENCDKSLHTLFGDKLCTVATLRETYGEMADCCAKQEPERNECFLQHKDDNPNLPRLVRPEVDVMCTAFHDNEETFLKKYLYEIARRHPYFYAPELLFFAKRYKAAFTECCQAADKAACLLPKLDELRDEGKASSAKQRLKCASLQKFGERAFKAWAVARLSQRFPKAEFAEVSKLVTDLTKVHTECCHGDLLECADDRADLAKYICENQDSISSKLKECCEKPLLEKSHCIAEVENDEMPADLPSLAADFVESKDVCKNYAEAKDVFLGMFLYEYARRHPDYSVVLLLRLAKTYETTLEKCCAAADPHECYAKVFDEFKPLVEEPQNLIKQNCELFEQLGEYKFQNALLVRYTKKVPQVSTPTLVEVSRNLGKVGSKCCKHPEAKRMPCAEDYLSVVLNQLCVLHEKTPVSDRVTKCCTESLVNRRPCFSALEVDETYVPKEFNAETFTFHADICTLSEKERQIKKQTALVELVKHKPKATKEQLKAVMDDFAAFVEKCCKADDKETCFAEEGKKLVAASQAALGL

Compound | K B (HAG [1]) | ϕF (HAG [2]; λexc = 340 nm, PBS) | K B (HSA [4]) | weight of τ1 component (HAG [2]) | weight of τ2 component (HAG [2]) | τ2 (HAG [2]) | τ1 (HAG [2]) | λmax (fluorescence) (HAG [2]; λexc = 340 nm, PBS) | phototoxicity (cellular milieu) | other results
COc1cc2ncnc(Nc3ccc(F)c(Cl)c3)c2cc1OCCCN1CCOCC1 [GFT, gefitinib, reference compound] | 1.2 × 10^5 M^-1 and 1.2 ± 0.08 × 10^5 M^-1 | 0.03 | – | – | – | – | – | – | – | τF (HAG [2]; λexc = 340 nm, PBS, one-exponential fit, or mean lifetime where marked d): 0.8 ns; ϕF [3]: ~0.19
COc1cc2ncnc(Nc3ccc(F)c(Cl)c3)c2cc1O [GFT-M1, O-desmorpholinopropyl gefitinib] | 9.1 ± 0.32 × 10^4 M^-1 | 0.04 | 1.2 ± 0.06 × 10^5 M^-1 | 28% | 72% | ~3.1 ns | ~0.5 ns | ~442 nm | highest phototoxicity | relative affinity in equimolar mixture of HSA and HAG (HSA and HAG): higher affinity to HSA; τF (HSA [5]): 2.5 ^b ns; ϕF (HSA [5]): 0.15 ^b
Oc1cc2ncnc(Nc3ccc(F)c(Cl)c3)c2cc1OCCCN1CCOCC1 [GFT-M2, O-desmethyl gefitinib] | 1.5 × 10^5 M^-1 and 1.5 ± 0.05 × 10^5 M^-1 | 0.03 | 1.8 ± 0.16 × 10^5 M^-1 | 35% | 65% | 4.1 ns | 0.7 ns | ~446 nm | much less phototoxic | weight of τ1 component (HSA [6]; two-exponential fit): 75%; weight of τ2 component (HSA [6]; two-exponential fit): 25%; τ2 (HSA [6]; two-exponential fit, long component): 4.9 ns; τ1 (HSA [6]; two-exponential fit, short component): 0.6 ns; λmax (fluorescence) (HSA [6]; [8]): ~388 nm; ϕF (HSA [6]; [8]): ~0.01; τF (HSA [6]; λexc = 340 nm, PBS, mean lifetime <τF> = a1τ1 + a2τ2): 1.0^d ns; shoulder detected in the fluorescence spectrum (HAG [2]; λexc = 340 nm, PBS, value between brackets): ~388 nm; ϕF ([7]; cyclohexane): ~0.13; fluorescence maximum ([7]; free in the bulk solution (PBS), λexc = 340 nm): ca. 440 nm; fluorescence maximum λmax ([7]; non-polar solvents): ca. 390 nm; λmax of new band at high amino acid concentrations ([7]; toluene, Tyr or Trp as quenchers, phenolate-like species): ~490 nm; fluorescence lifetime of the LE singlet state ([7]; toluene, with NAc-TyrMe or NAc-TrpMe at molar ratios 1:50 to 1:300): ca. 2.42 ns
